{"source": "ChEMBL document CHEMBL1130691", "about": "“Acceptor substrate-based selective inhibition of galactosyltransferases” (Bioorg Med Chem Lett, 1998)", "key": {"[1]": {"biological_target": "T1, N-acetyllactosaminide alpha-1,3-galactosyltransferase (Sus scrofa, UniProt P50127)", "T1 sequence (P50127 whole entry)": "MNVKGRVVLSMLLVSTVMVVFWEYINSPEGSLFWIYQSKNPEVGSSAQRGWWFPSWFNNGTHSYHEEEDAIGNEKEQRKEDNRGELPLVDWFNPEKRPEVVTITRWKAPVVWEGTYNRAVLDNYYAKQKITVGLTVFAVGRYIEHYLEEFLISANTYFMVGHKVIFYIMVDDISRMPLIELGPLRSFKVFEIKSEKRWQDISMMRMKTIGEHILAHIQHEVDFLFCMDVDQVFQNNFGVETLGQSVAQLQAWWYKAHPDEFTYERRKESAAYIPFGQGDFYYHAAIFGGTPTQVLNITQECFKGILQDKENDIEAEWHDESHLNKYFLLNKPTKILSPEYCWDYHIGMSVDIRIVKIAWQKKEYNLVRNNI", "assay": "Compound was tested for the inhibition porcine alpha -1,3 -galactosyl transferase (alpha-1,3-GalT); No inhibition; call rule not given here"}, "[2]": {"biological_target": "T2, Beta-1,4-galactosyltransferase 1 (Bos taurus, UniProt P08037)", "T2 sequence (P08037 whole entry)": "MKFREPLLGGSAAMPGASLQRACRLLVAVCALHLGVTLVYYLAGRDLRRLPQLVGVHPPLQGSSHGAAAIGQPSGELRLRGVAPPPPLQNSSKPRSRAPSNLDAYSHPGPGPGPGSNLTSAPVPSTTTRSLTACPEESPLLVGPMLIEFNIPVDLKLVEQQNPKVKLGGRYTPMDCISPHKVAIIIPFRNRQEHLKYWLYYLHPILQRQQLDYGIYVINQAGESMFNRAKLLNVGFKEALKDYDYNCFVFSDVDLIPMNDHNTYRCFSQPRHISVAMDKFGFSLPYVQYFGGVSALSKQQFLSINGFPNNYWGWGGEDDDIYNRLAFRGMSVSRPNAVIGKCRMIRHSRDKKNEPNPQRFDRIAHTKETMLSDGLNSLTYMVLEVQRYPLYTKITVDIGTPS", "assay": "Compound was tested for the inhibition recombinant bovine beta -1,4 -galactosyl transferase (beta-1,4-GalT)"}, "[3]": {"biological_target": "T2, Beta-1,4-galactosyltransferase 1", "assay": "Compound was tested for the inhibition recombinant bovine beta -1,4 -galactosyl transferase (beta-1,4-GalT); No inhibition"}, "[4]": {"biological_target": "T1, N-acetyllactosaminide alpha-1,3-galactosyltransferase", "assay": "Compound was tested for the inhibition porcine alpha -1,3 -galactosyl transferase (alpha-1,3-GalT)"}, "[5]": {"biological_target": "T1, N-acetyllactosaminide alpha-1,3-galactosyltransferase", "assay": "Compound was tested for the inhibition porcine alpha -1,3 -galactosyl transferase (alpha-1,3-GalT) at 0.2 mM concentration"}}}
{"molecule": "CC(=O)NC1C(Oc2ccc3cc(Br)ccc3c2)OC(CO)C(O)C1O", "note": "(stereo unspecified)", "values": [{"measurement": "Ki", "setting": "[1]", "result": "Not Active"}, {"measurement": "Ki", "setting": "[2]", "result": 7.6, "unit": "µM"}]}
{"molecule": "CC(=O)NC1C(Oc2ccc3ccccc3c2)OC(CO)C(O)C1O", "note": "(stereo unspecified)", "values": [{"measurement": "Ki", "setting": "[1]", "result": "Not Active"}, {"measurement": "Ki", "setting": "[2]", "result": 9.5, "unit": "µM"}]}
{"molecule": "CC(=O)NC1C(Oc2ccccc2)OC(CO)C(O)C1O", "note": "(stereo unspecified)", "values": [{"measurement": "Ki", "setting": "[3]", "result": "Not Active"}]}
{"molecule": "COC(=O)CCCCCOC1OC(CO)C(O)C(O)C1NC(C)=O", "note": "(stereo unspecified)", "values": [{"measurement": "Ki", "setting": "[3]", "result": "Not Active"}]}
{"molecule": "CC(=O)NC1C(Oc2cccc3ccccc23)OC(CO)C(O)C1O", "note": "(stereo unspecified)", "values": [{"measurement": "Ki", "setting": "[1]", "result": "Not Active"}, {"measurement": "Ki", "setting": "[2]", "result": 22, "unit": "µM"}]}
{"molecule": "CC(=O)NC1C(OCc2ccccc2)OC(CO)C(N)C1O", "note": "(stereo unspecified)", "values": [{"measurement": "Ki", "setting": "[2]", "result": 850, "unit": "µM"}]}
{"molecule": "OC[C@@H]1O[C@@H](Oc2ccc3cc(Br)ccc3c2)[C@@H](O)[C@@H](O)[C@H]1O", "values": [{"measurement": "Ki", "setting": "[3]", "result": "Not Active"}]}
{"molecule": "CO[C@@H]1O[C@@H](CO)[C@H](O)[C@H](O[C@@H]2O[C@@H](CS)[C@@H](O)[C@H](O)[C@@H]2NC(C)=O)[C@@H]1O", "values": [{"measurement": "Ki", "setting": "[2]", "result": 1000, "unit": "µM"}]}
{"molecule": "CC(=O)N[C@@H]1[C@H](Oc2ccc3cc(Br)ccc3c2)O[C@@H](CO)[C@@H](O[C@@H]2O[C@@H](CO)[C@H](O)[C@H](O)[C@@H]2O)[C@@H]1O", "values": [{"measurement": "Ki", "setting": "[4]", "result": 9.2, "unit": "µM"}, {"measurement": "Ki", "setting": "[3]", "result": "Not Active"}]}
{"molecule": "COc1ccc2cc(OC3OC(CO)C(O)C(O)C3NC(C)=O)ccc2c1", "note": "(stereo unspecified)", "values": [{"measurement": "Ki", "setting": "[1]", "result": "Not Active"}, {"measurement": "Ki", "setting": "[2]", "result": 3.5, "unit": "µM"}]}
{"molecule": "COC1OC(CO)C(OC2OC(CO)C(O)C(N)C2O)C(O)C1NC(C)=O", "note": "(stereo unspecified)", "values": [{"measurement": "Ki", "setting": "[5]", "result": 104, "unit": "µM"}]}
